Reference: US10590078B2, “Sodium channel blockers” (Daewoong Pharmaceutical Co., Ltd., priority 2015, dated 2020)

Biological target: human sodium ion channel 1.7 (hNav1.7) (Homo sapiens, UniProt Q15858)
Assay: Blocking effect against sodium ion channel Nav1.7, IonFlux16 auto patch clamp in hNav1.7 HEK293 cells
Format: cell-based
Settings: hNav1.7 HEK293 cells; inhibition of peak current after 50 seconds treatment; eight concentrations; read-out: IC50

human sodium ion channel 1.7 (hNav1.7), sequence (Q15858 whole entry): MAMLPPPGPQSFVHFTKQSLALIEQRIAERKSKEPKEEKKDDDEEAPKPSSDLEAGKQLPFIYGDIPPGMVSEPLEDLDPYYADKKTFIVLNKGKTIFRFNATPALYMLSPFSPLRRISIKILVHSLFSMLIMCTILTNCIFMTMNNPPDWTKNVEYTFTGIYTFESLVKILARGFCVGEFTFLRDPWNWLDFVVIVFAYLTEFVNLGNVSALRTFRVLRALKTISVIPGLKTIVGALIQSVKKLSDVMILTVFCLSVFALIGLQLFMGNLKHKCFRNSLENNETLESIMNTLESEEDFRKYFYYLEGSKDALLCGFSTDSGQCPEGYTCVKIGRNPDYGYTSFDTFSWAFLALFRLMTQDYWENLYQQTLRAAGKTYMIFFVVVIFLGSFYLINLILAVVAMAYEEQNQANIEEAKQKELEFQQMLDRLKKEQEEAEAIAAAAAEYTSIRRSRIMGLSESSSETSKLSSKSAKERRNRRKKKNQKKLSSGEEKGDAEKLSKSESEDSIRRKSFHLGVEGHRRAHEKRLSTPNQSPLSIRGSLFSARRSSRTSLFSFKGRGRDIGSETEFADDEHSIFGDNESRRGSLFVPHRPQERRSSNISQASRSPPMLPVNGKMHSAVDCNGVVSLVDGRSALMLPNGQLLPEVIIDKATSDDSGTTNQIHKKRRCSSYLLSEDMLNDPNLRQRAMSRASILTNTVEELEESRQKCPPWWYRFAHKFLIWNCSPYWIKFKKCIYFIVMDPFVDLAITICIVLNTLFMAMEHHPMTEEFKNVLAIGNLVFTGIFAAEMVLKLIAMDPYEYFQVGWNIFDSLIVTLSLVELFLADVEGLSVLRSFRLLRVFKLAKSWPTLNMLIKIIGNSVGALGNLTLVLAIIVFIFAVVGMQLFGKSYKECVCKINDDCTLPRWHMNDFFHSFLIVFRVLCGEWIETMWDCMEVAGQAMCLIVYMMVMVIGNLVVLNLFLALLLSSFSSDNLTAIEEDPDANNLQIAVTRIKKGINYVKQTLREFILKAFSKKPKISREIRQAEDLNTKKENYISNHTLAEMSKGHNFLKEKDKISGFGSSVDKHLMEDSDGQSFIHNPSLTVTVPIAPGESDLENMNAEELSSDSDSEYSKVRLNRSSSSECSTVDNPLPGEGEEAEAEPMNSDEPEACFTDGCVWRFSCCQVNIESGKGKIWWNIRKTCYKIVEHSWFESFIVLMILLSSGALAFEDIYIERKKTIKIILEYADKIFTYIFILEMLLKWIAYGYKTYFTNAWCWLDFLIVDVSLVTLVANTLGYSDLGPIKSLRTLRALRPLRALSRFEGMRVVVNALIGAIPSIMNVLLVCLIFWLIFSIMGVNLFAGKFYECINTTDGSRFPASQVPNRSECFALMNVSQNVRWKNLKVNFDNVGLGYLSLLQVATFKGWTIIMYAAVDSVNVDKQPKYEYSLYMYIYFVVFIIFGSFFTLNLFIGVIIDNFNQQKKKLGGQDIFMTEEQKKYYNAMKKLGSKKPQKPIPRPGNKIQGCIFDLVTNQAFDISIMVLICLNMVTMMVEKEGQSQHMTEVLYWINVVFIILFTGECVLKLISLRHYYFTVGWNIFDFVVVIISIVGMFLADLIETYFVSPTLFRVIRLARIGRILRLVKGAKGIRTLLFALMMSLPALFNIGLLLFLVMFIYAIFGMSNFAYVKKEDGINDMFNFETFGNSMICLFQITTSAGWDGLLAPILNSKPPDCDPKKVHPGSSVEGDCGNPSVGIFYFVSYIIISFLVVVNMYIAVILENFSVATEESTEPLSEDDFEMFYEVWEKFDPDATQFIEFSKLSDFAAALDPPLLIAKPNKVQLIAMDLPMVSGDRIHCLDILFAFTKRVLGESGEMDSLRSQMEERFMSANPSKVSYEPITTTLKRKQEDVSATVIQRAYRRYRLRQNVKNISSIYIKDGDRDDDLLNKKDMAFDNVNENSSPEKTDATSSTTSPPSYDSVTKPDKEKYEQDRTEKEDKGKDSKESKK

SMILES | IC50 [nM]
CS(=O)(=O)NC(=O)c1cc(Cl)c(-n2nc(Cl)c3cc(-c4cccc(C(F)(F)F)c4)ccc32)cc1F [Example 249, 5-chloro-4-(3-chloro-5-(3-(trifluoromethyl)phenyl)-1H-indazol-1-yl)-2-fluoro-N-(methylsulfonyl)benzamide] | 74
CS(=O)(=O)NC(=O)c1cc(Cl)c(-n2nc(Cl)c3cc(-c4ccccc4C(F)(F)F)ccc32)cc1F [Example 250, 5-chloro-4-(3-chloro-5-(2-(trifluoromethyl)phenyl)-1H-indazol-1-yl)-2-fluoro-N-(methylsulfonyl)benzamide] | 67
CS(=O)(=O)NC(=O)c1cc(Cl)c(-n2nc(Cl)c3cc(-c4ccc(C(F)(F)F)cc4)ccc32)cc1F [Example 251, 5-chloro-4-(3-chloro-5-(4-(trifluoromethyl)phenyl)-1H-indazol-1-yl)-2-fluoro-N-(methylsulfonyl)benzamide] | 113
CS(=O)(=O)NC(=O)c1cc(Cl)c(-n2nc(Cl)c3cc(-c4ccccc4Cl)ccc32)cc1F [Example 252, 5-chloro-4-(3-chloro-5-(2-chlorophenyl)-1H-indazol-1-yl)-2-fluoro-N-(methylsulfonyl)benzamide] | 240
Cc1cc(Cl)ccc1-c1ccc2c(c1)c(Cl)nn2-c1cc(F)c(C(=O)NS(C)(=O)=O)cc1Cl [Example 253, 5-chloro-4-(3-chloro-5-(4-chloro-2-methylphenyl)-1H-indazol-1-yl)-2-fluoro-N-(methylsulfonyl)benzamide] | 480
CS(=O)(=O)NC(=O)c1cc(Cl)c(-n2nc(Cl)c3cc(-c4cc(Cl)ccc4F)ccc32)cc1F [Example 254, 5-chloro-4-(3-chloro-5-(5-chloro-2-fluorophenyl)-1H-indazol-1-yl)-2-fluoro-N-(methylsulfonyl)benzamide] | 420
CS(=O)(=O)NC(=O)c1cc(Cl)c(-n2nc(Cl)c3cc(-c4ccc(Cl)cc4)ccc32)cc1F [Example 255, 5-chloro-4-(3-chloro-5-(4-chlorophenyl)-1H-indazol-1-yl)-2-fluoro-N-(methylsulfonyl)benzamide] | 830
Cn1nccc1-c1ccc2c(c1)c(Cl)nn2-c1cc(F)c(C(=O)NS(C)(=O)=O)cc1Cl [Example 256, 5-chloro-4-(3-chloro-5-(1-methyl-1H-pyrazol-5-yl)-1H-indazol-1-yl)-2-fluoro-N-(methylsulfonyl)benzamide] | 3990
CS(=O)(=O)NC(=O)c1cc(Cl)c(-n2cc(Cl)c3cc(-c4ccc(F)cc4)cnc32)cc1F [Example 257, 5-chloro-4-(3-chloro-5-(4-fluorophenyl)-1H-pyrrolo[2,3-b]pyridin-1-yl)-2-fluoro-N-(methylsulfonyl)benzamide] | 360
COc1ccc(-c2cnc3c(c2)c(Cl)cn3-c2cc(F)c(C(=O)NS(C)(=O)=O)cc2Cl)cc1 [Example 260, 5-chloro-4-(3-chloro-5-(4-methoxyphenyl)-1H-pyrrolo[2,3-b]pyridin-1-yl)-2-fluoro-N-(methylsulfonyl)benzamide] | 470
CS(=O)(=O)NC(=O)c1cc(Cl)c(-n2cc(Cl)c3cc(-c4ccc(C(F)(F)F)cc4)cnc32)cc1F [Example 261, 5-chloro-4-(3-chloro-5-(4-(trifluoromethyl)phenyl)-1H-pyrrolo[2,3-b]pyridin-1-yl)-2-fluoro-N-(methylsulfonyl)benzamide] | 180
CS(=O)(=O)NC(=O)c1cc(Cl)c(-n2cc(Cl)c3cc(-c4cccc(F)c4)cnc32)cc1F [Example 262, 5-chloro-4-(3-chloro-5-(3-fluorophenyl)-1H-pyrrolo[2,3-b]pyridin-1-yl)-2-fluoro-N-(methylsulfonyl)benzamide] | 210
CS(=O)(=O)NC(=O)c1cc(Cl)c(-n2nc(Cl)c3ccc(-c4ccccc4)cc32)cc1F [Example 263, 5-chloro-4-(3-chloro-6-phenyl-1H-indazol-1-yl)-2-fluoro-N-(methylsulfonyl)benzamide] | > 10000
CS(=O)(=O)NC(=O)c1cc(Cl)c(-n2nc(-c3ccccc3)c3cc(-c4ccccc4)ccc32)cc1F [Example 264, 5-chloro-4-(3,5-diphenyl-1H-indazol-1-yl)-2-fluoro-N-(methylsulfonyl)benzamide] | 164
CS(=O)(=O)NC(=O)c1cc(Cl)c(-n2cc(C(=O)O)c3cc(Cl)ccc32)cc1F [Example 265, 5-chloro-1-(2-chloro-5-fluoro-4-((methylsulfonyl)carbamoyl)phenyl)-1H-indole-3-carboxylic acid] | 300 to 1000
CS(=O)(=O)NC(=O)c1cc(Cl)c(-n2cc(Cl)c3cc(Cl)ccc32)cc1F [Example 266, 5-chloro-4-(3,5-dichloro-1H-indol-1-yl)-2-fluoro-N-(methylsulfonyl)benzamide] | 133
CS(=O)(=O)NC(=O)c1cc(Cl)c(-n2cc(Cl)c3c(Cl)c(O)ccc32)cc1F [Example 267, 5-chloro-4-(3,4-dichloro-5-hydroxy-1H-indol-1-yl)-2-fluoro-N-(methylsulfonyl)benzamide] | > 10000
COc1ccc2c(c1)c(Cl)cn2-c1cc(F)c(C(=O)NS(C)(=O)=O)cc1Cl [Example 268, 5-chloro-4-(3-chloro-5-methoxy-1H-indol-1-yl)-2-fluoro-N-(methylsulfonyl)benzamide] | 608
CS(=O)(=O)NC(=O)c1cc(Cl)c(-n2cc(Cl)c3cc(OCc4ccccc4)ccc32)cc1F [Example 269, 4-(5-(benzyloxy)-3-chloro-1H-indol-1-yl)-5-chloro-2-fluoro-N-(methylsulfonyl)benzamide] | 142
CS(=O)(=O)NC(=O)c1cc(Cl)c(-n2cc(Cl)c3c(OCc4ccccc4)cccc32)cc1F [Example 270, 4-(4-(benzyloxy)-3-chloro-1H-indol-1-yl)-5-chloro-2-fluoro-N-(methylsulfonyl)benzamide] | 187
CS(=O)(=O)NC(=O)c1cc(Cl)c(-n2cc(Cl)c3ccc(OCc4ccccc4)cc32)cc1F [Example 271, 4-(6-(benzyloxy)-3-chloro-1H-indol-1-yl)-5-chloro-2-fluoro-N-(methylsulfonyl)benzamide] | 2130
CS(=O)(=O)NC(=O)c1cc(Cl)c(-n2cc(-c3ccc(Cl)cc3)c3cc(Cl)ccc32)cc1F [Example 272, 5-chloro-4-(5-chloro-3-(4-chlorophenyl)-1H-indol-1-yl)-2-fluoro-N-(methylsulfonyl)benzamide] | 370
CS(=O)(=O)NC(=O)c1cc(Cl)c(-n2cc(-c3ccc(Cl)nc3)c3cc(Cl)ccc32)cc1F [Example 273, 5-chloro-4-(5-chloro-3-(6-chloropyridin-3-yl)-1H-indol-1-yl)-2-fluoro-N-(methylsulfonyl)benzamide] | 180
CS(=O)(=O)NC(=O)c1ccc(-n2cc(-c3ccc(Cl)cc3)c3cc(Cl)ccc32)nc1 [Example 274, 6-(5-chloro-3-(4-chlorophenyl)-1H-indol-1-yl)-N-(methylsulfonyl)nicotinamide] | 5960
CS(=O)(=O)NC(=O)c1ccc(-n2cc(-c3ccc(F)cc3)c3cc(Cl)ccc32)nc1 [Example 275, 6-(5-chloro-3-(4-fluorophenyl)-1H-indol-1-yl)-N-(methylsulfonyl)nicotinamide] | 1230
O=S(=O)(Nc1cscn1)c1cc(Cl)c(-n2nc(Cl)c3cc(-c4ccccc4)ccc32)cc1F [Example 276, 5-chloro-4-(3-chloro-5-phenyl-1H-indazol-1-yl)-2-fluoro-N-(thiazol-4-yl)benzenesulfonamide] | > 10000
